Results reported in PubChem BioAssay AID1345 (Sanford-Burnham Center for Chemical Genomics, 2008).
Calls of active or inactive are those of the source.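 Rule for the calls: active = survival above 70% of the untreated level at 25 µM; inactive = the rest.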

Tested on: CSM14.1 cells, VP16-induced death, ATP luminescence, 48 h
Test: rescue from etoposide-induced cell death, late-stage follow-up, selectivity assay for ER stress death inhibitor project, undifferentiated CSM14.1, ATP content (AID 1345)
Details: at 25 µM; hits give high values

Compound	viability
CCOc1cccc(C2Nc3ccccc3NC3=C2C(=O)CC(c2ccc(OC)cc2)C3)c1 (stereo unspecified)	50% (inactive)
COc1ccc(C2CC(=O)C3=C(C2)Nc2ccccc2NC3c2cc(C)ccc2C)cc1 (stereo unspecified)	56% (inactive)
CSc1ccc(C2Nc3ccccc3NC3=C2C(=O)CC(c2ccccc2)C3)cc1 (stereo unspecified)	52% (inactive)
CC1(C)CC(=O)C2=C(C1)Nc1ccccc1NC2c1ccc(-c2ccccc2)cc1 (stereo unspecified)	53% (inactive)
O=C1CC(c2ccccc2)CC2=C1C(c1c(F)cccc1Cl)Nc1ccccc1N2 (stereo unspecified)	50% (inactive)
CCCOc1ccc(C2Nc3ccccc3NC3=C2C(=O)CC(c2ccc(OC)c(OC)c2)C3)cc1 (stereo unspecified)	57% (inactive)
COc1ccc(C2CC(=O)C3=C(C2)Nc2ccccc2NC3c2ccccc2C(F)(F)F)cc1OC (stereo unspecified)	50% (inactive)
CCOc1cc(C2Nc3ccccc3NC3=C2C(=O)CC(c2ccc(OC)cc2)C3)cc(Cl)c1O (stereo unspecified)	42% (inactive)
COc1ccc(C2CC(=O)C3=C(C2)Nc2ccccc2NC3c2cccc(C(F)(F)F)c2)cc1OC (stereo unspecified)	49% (inactive)
COc1ccc(C2CC(=O)C3=C(C2)Nc2ccccc2NC3c2cccc(Oc3ccccc3)c2)cc1OC (stereo unspecified)	54% (inactive)
COc1ccc(C2CC(=O)C3=C(C2)Nc2ccccc2NC3c2cccc(Br)c2)cc1OC (stereo unspecified)	56% (inactive)
